Patent US7998460B2, “Prevention of deficits in neurogenesis with anti-inflammatory agents” (The Board of Trustees of the Leland Stanford Junior …, priority 2003, dated 2011)
“Also recorded” adds a separate entry of the source.

Tests used:
[1] = system: adult rats; test: Barnes maze after LPS; format: in vivo, rat
Excerpt: LPS-induced inflammatory response impairs performance in the Barnes maze. It has been reported previously that irradiation and LPS-induced inflammation impair performance in hippocampus-dependent spatial tasks. The present studies confirm that LPS treatment impaired recall of a goal position learned prior to LPS treatment. The Barnes maze is a 6-foot diameter bright white platform with 8 escape boxes under holes in the rim of the platform. All escape holes are blocked except one and the rat is initially placed in the goal box for familiarization. The rat is then placed in the center of the maze and is allowed to find its way back to the goal box to escape the aversive brightly lit platform. Learning is seen as a decrease in the distance traveled to reach the goal box with consecutive trials on a given day and in repeat sessions on sequential days. One measure of recall is to determine distance traveled when the animal is tested on the same task after a time delay or after experimental treatments.
To determine if there were differences in recall following LPS treatment, animals were trained on the Barnes maze for 5 consecutive days prior to LPS treatment. LPS was given on day 0 and animals tested for recall on day 7. Low-dose intraperitoneal LPS treatment makes animals feel mildly ill and they will reduce their water and food intake for a period of one or two days. There is a temporary weight loss that is fully recovered by day 7.
Animals were weighed daily and after 7 days tested for memory retention on the Barnes maze. On days 8-11, animals were re-trained for their ability to learn the position of a new goal box in the Barnes maze. Animals were then tested on day 14 for the ability to remember the position of the second goal box. LPS caused a ˜14% increase in the distance traveled to the goal box learned prior to LPS treatment, indicating impaired spatial memory. LPS caused a significant increase (˜28%) in the distance traveled during day 8 trials used to learn the position of the new goal box (indicating impaired spatial learning) but all animals eventually learned the position of the goal box by day 11 (no difference in distance traveled between LPS and control groups).

[2] = system: C57BI/6 mice; test: Locomotor chambers and Morris water maze after LPS in mice; format: in vivo, mouse; details: for effect of NSAID on LPS-induced impairment of probe trial performance: oral NSAID course, training from Day 28
Protocol: Behavioral testing. Locomotor activity was measured in 17×17 inch chambers lined with three 16-beam infrared arrays in photocell boxes (MED Associates, Inc., St. Albans, Vt.). The mice were placed into the chambers and their locomotor activity was recorded for 20 minutes 4 days after LPS was injected (on Day 4). A 50 msec scanning rate was used for measuring beams broken. Distance traveled was analyzed for estimates of locomotion based on the movement of a given distance and resting delay (movement in a given period) using Open Field Activity software (MED Associates, Inc., St. Albans, Vt.).
Hippocampus-dependent learning and memory was assessed in the standard Morris water maze task. All hippocampus-dependent training and testing was conducted in a black circular tank (170 cm diameter×43 cm height) filled water made opaque using white non-toxic Tempra paint (Rich Art Color Co. Inc, Northvale, Calif.; training and testing). A platform (13 cm diameter×28.5 cm height) was hidden 1 cm below the water surface for platform shaping and training trials. Time and distance traveled in the pool was recorded using Videotrack Automated Behavioral Analysis System (Viewpoint Life Sciences Inc., Otterburn Park, Quebec).
Platform shaping began three days before platform training (Days 25-27). In the absence of extra-maze cues, mice were released from random points in the pool (filled with clearwater) near the platform and gently guided to the platform. Shaping trials continued until the mouse remained on the platform for 15 s over 3 consecutive trials on each of the three sessions.
[…] In the presence of extra-maze cues, the mice were released from the middle of the east, south, or west quadrant, facing the pool wall, and were given 120 s to find the platform hidden beneath opaque water in the center of the north quadrant. […] Sessions of 6 training trials (inter-trial interval of approximately 30 min) were conducted daily until all the mice located the platform in an average of 15 s or less within a session. […] Pathlength and latency were analyzed as measures of learning, swim speed was analyzed as a measure of sensorimotor ability and % time spent in outer annulus was analyzed as a measure of anxiety.
Probe Trial Testing was conducted at 1 week after mice reached criterion in the platform training phase of the experiment. The room setup was identical for platform training and probe trials, with the exception that the platform was removed from the pool during probe trials. The mice were given a single trial in which they were released from the center of the pool and then after 3 minutes were removed from the location that held the platform during training trials. Percent time and distance spent in each quadrant were analyzed as measures of memory, swim speed and total distance swum were analyzed as measures of sensorimotor ability and % time and distance spent in the outer annulus were analyzed as measures of anxiety. After the last probe trial, we ran four daily sessions of reversal trials (4 trials per session) in which mice were given 120 s to locate the platform hidden beneath opaque water in the south quadrant to better interpret whether probe trial performance was indicative of memory or perseveration. […] A visible platform session (2 trials) was administered after the final reversal trial to further test sensorimotor ability. Reversal and visible platform trial performance was scored identically to platform training performance.

Molecule	learning and memory, drug alone by intraperitoneal injection ([1]; indomethacin 2.5 mg/kg twice daily i.p., no LPS)	learning and memory, oral drug alone ([1]; indomethacin 2.5 mg/kg twice daily oral, no LPS)	effect on LPS effects on memory retention and learning of second goal box ([1]; oral indomethacin 2.5 mg/kg twice daily with LPS)	effect of NSAID on LPS-induced impairment of probe trial performance ([2]; LPS 5 mg/kg)	effect of NSAID on LPS-induced impairment of probe trial performance ([2]; LPS 5 mg/kg, listed as Indomethacin)	increase in distance traveled to the goal box learned prior to LPS treatment ([1]; day 7 after LPS, memory retention)	increase in distance traveled during day 8 trials to learn the new goal box ([1]; day 8 after LPS, spatial learning)	total distance explored and duration spent exploring a novel chamber vs vehicle ([2]; LPS 5 mg/kg, Day 4)	learning and remembering hidden platform position vs control, acute phase recovery ([2]; LPS 5 mg/kg, training from Day 7)	probe trial time in platform quadrant vs control ([2]; training commenced 4 weeks after LPS)
COc1ccc2c(c1)c(CC(=O)O)c(C)n2C(=O)c1ccc(Cl)cc1 [indomethacin]	perform more poorly in all tasks at all time points	no measurable effects	completely reverse	partially attenuated	reversed the effects of LPS on probe trial performance	–	–	–	–	–
lipopolysaccharide [LPS]	–	–	–	–	–	~14%	~28%	significantly smaller	equally efficient	significantly smaller amount of time; also recorded: significantly less time
